Structures can show the parent of a compound that is named as a salt. Where two headings read alike, the source gives them in different places.
Experiment: Multi-component pharmacokinetics in rat plasma after oral administration of RB, RPA or RB-RPA extracts (UPLC-HRMS, non-compartmental analysis)
Type: in vivo, Sprague-Dawley rats
Conditions: for AUC0-t / AUC0-∞ / Cmax / t1/2 / tmax / AUC(0-inf) / half-life / Cmax, second value / tmax, second value: rat plasma, n = 7; for AUC0-t / AUC0-∞ / Cmax / t1/2 / tmax / AUC(0-inf) / half-life: mean ± SD; for change of AUC0-∞ after combination: oral RB-RPA group vs single herbal group (RB or RPA)
Description: (Beijing, China, No. SCXK2018-0011). […] All rats were free to access the water and food until 12 h before the experiment. The animal study was reviewed and approved by the Experimental Animal Ethical Committee of Modern Research Center for Traditional Chinese Medicine, Shanxi University (animal ethic approval number: SXULL2018018), and all experimental procedures were carried out in accordance with the NIH Guide for the Care and Use of Laboratory Animals. After one week of adaptation, twenty-one rats were divided into three groups randomly, with seven rats in each group: 1) RPA group, were oral administration of Radix Paeoniae Alba extract (45 g-herb/kg); 2) RB group, were oral administration of Radix Bupleuri extract (45 g-herb/kg); 3) RB-RPA group, were oral administration of powder mixture of Radix Bupleuri and Radix Paeoniae Alba extracts (containing 45 g-herb/kg Radix Bupleuri and 45 g-herb/kg Radix Paeoniae Alba). […] Each group received intragastric administration with a volume of 10 ml/kg (rat body weight). […] All rats were free to access the water during the experiment. The blood samples at each time point were collected from seven rats. The blood samples were centrifuged at 4,000 rpm for 10 min and frozen at -80°C until analysis. Using a Thermo-Fisher Dionex UltiMate 3000 UHPLC system coupled with a Q Exactive Orbitrap-MS (Thermo-Fisher, United States) and Xcalibur workstation (Thermo-Fisher Scientific Inc.,Waltham, MA, United States) to acquire UPLC-HRMS raw data. Chromatographic separation of herb extracts and plasma samples was performed on an Acquity UPLC HSS T3 column (2.1 mm × 100 mm, 1.8 μm) maintained at 37°C. The flow rate was 0.2 ml/min and the injection volume was 5 μL. […] Mass spectrometry detection conditions were set as follows: the MS data were acquired under positive and negative ionization modes via heated electrospray ionization (HESI) source. […] The Q Exactive Orbitrap-MS has a fast positive and negative ion switching function, which could switch between positive-negative ion modes during the analysis of the same sample. So, we applied the method of switching ion modes in the detection process to quantify all analytes better. […] UPLC/MS/MS calibration and quantitation data were processed with Xcalibur workstation (Thermo-Fisher Scientific Inc., Waltham, MA, United States). For the eight components with standard reference, calculating their concentrations from the standard curves. For the other 30 components without standard reference, their concentrations were analyzed following the regression equations of homologous compounds ([Qiao et al., 2012]): paeoniflorin for P1 and M1 to M3; methylgallate for M4 to M10; saikosaponin […] and […]; saikosaponin […]; saikosaponin […]; saikosaponin B2 for P11 and M25 to […].

[1] = oral RB single extract 45 g-herb/kg
[2] = oral RB-RPA mixed extracts (45 g-herb/kg RB + 45 g-herb/kg RPA)
[3] = oral administration of mixed extracts RB-RPA
[4] = oral administration of single extract RPA
[5] = male, Sprague-Dawley, rat, plasma, po, 45 g/kg, oral administration of mixed extracts RB-RPA
[6] = male, Sprague-Dawley, rat, plasma, po, 45 g/kg, oral administration of mixed extracts RB-RPA, read-out: AUC0-t
[7] = male, Sprague-Dawley, rat, plasma, po, 45 g/kg, oral administration of mixed extracts RB-RPA, read-out: Cmax
[8] = male, Sprague-Dawley, rat, plasma, po, 45 g/kg, oral administration of mixed extracts RB-RPA, read-out: tmax
[9] = male, Sprague-Dawley, rat, plasma, po, 45 g/kg, oral administration of single extract RPA
[10] = male, Sprague-Dawley, rat, plasma, po, 45 g/kg, oral administration of single extract RPA, read-out: AUC0-t
[11] = male, Sprague-Dawley, rat, plasma, po, 45 g/kg, oral administration of single extract RPA, read-out: Cmax

Compound | AUC0-t [1] | AUC0-∞ [1] | Cmax [1] | t1/2 [1] | tmax [1] | AUC0-t [2] | AUC0-∞ [2] | Cmax [2] | t1/2 [2] | tmax [2] | AUC0-t [3] | AUC0-∞ [3] | Cmax [3] | t1/2 [3] | tmax [3] | AUC0-t [4] | AUC0-∞ [4] | Cmax [4] | t1/2 [4] | tmax [4] | also measured
CC(=O)OC[C@H]1O[C@@H](O[C@H]2[C@@H](O)[C@@H](C)O[C@@H](O[C@H]3CC[C@@]4(C)[C@@H](CC[C@]5(C)[C@@H]4C=CC46OCC7(CCC(C)(C)C[C@H]74)[C@@H](O)C[C@]65C)[C@]3(C)CO)[C@@H]2O)[C@H](O)[C@@H](O)[C@@H]1O (stereo partly drawn) [Acetyl-saikosaponin A] | 51.16 ± 11.83 ng·h/mL | 57.19 ± 10.74 ng·h/mL | 29.39 ± 11.24 ng/mL | 3.50 ± 0.74 h | 0.46 ± 0.19 h | 62.08 ± 16.91 ng·h/mL | 67.17 ± 16.28 ng·h/mL | 27.55 ± 9.89 ng/mL | 4.38 ± 1.27 h | 0.54 ± 0.19 h | – | – | – | – | – | – | – | – | – | – | –
CC(=O)OC[C@H]1O[C@@H](O[C@H]2[C@@H](O)[C@@H](C)O[C@@H](O[C@H]3CC[C@@]4(C)[C@@H](CC[C@]5(C)[C@@H]4C=CC46OCC7(CCC(C)(C)C[C@H]74)[C@H](O)C[C@]65C)[C@]3(C)CO)[C@@H]2O)[C@H](O)[C@@H](O)[C@@H]1O (stereo partly drawn) [Acetyl-saikosaponin D] | 23.58 ± 6.77 ng·h/mL | 25.54 ± 7.23 ng·h/mL | 19.20 ± 6.70 ng/mL | 2.68 ± 0.71 h | 0.50 ± 0.27 h | 38.05 ± 21.32 ng·h/mL | 43.25 ± 27.08 ng·h/mL | 20.31 ± 12.42 ng/mL | 4.39 ± 1.55 h | 0.50 ± 0.27 h | – | – | – | – | – | – | – | – | – | – | –
C[C@]12C[C@@H](O)[C@@H]3C[C@@]1(O[C@@H]1O[C@H](CO)[C@@H](O)[C@H](O)[C@H]1O)[C@@]3(COC(=O)c1ccccc1)C(=O)O2 [Albiflorin] | – | – | – | – | – | – | – | 365.94 ± 41.75 ng/mL | – | – | 1834.06 ± 191.89 ng·h/mL | 1849.80 ± 396.92 ng·h/mL | 365.94 ± 41.75 ng/mL | 3.46 ± 0.56 h | 0.71 ± 0.25 h | 1202.69 ± 302.31 ng·h/mL | 1210.33 ± 303.04 ng·h/mL | 271.50 ± 63.29 ng/mL | 3.19 ± 0.58 h | 1.25 ± 0.89 h | Cmax (oral RPA single extract 45 g-herb/kg): 271.50 ± 63.29 ng/mL; change of AUC0-∞ after combination (rat): significantly increased
C[C@@]12C[C@@]3(O)O[C@@H](O1)[C@]1(CO)[C@H]3C[C@@]12O[C@@H]1O[C@H](CO)[C@@H](O)[C@H](O)[C@H]1O [Desbenzoylpaeoniflorin] | – | – | – | – | – | – | – | – | – | – | 27.39 ± 15.84 ng·h/mL | 28.66 ± 16.13 ng·h/mL | 10.12 ± 5.32 ng/mL | 2.17 ± 0.95 h | 0.58 ± 0.13 h | 18.66 ± 9.99 ng·h/mL | 20.34 ± 9.44 ng·h/mL | 8.76 ± 4.90 ng/mL | 2.72 ± 1.32 h | 0.75 ± 0.16 h | –
COC(=O)c1cc(O)c(O)c(O)c1 [Methyl gallate] | – | – | – | – | – | – | – | – | – | – | – | – | – | – | – | – | – | – | – | – | AUC(0-inf) [5]: 213 ± 40.5 ng·h/mL; half-life [5]: 4.77 ± 3.32 h; AUC0-t [6]: 187 ± 42.4 ng·h/mL; Cmax [7]: 57.6 ± 7.34 ng/mL; tmax [8]: 0.5 ± 0.16 h; AUC(0-inf) [9]: 144 ± 59.1 ng·h/mL; half-life [9]: 4.11 ± 2.31 h; AUC0-t [10]: 141 ± 61.3 ng·h/mL; Cmax [11]: 48.6 ± 9.47 ng/mL; tmax (male, Sprague-Dawley, rat, plasma, po, 45 g/kg, oral administration of single extract RPA, read-out: tmax): 0.58 ± 0.13 h; change of AUC0-∞ after combination (rat): significantly increased
C[C@@]12C[C@@]3(O)O[C@@H](O1)[C@]1(COC(=O)c4ccccc4)[C@H]3C[C@@]12O[C@@H]1O[C@H](CO)[C@@H](O)[C@H](O)[C@H]1O [Paeoniflorin] | – | – | – | – | – | – | – | – | – | – | – | – | – | – | – | – | – | – | 2.71 ± 0.72 h | – | Cmax (male, Sprague-Dawley, rat, plasma, po, 45 g-herb/kg, oral RPA single extract 45 g-herb/kg, read-out: Cmax): 1780 ± 513 ng/mL; AUC(0-inf) [5]: 7170 ± 1140 ng·h/mL; half-life [5]: 1.96 ± 0.37 h; AUC0-t [6]: 7170 ± 1140 ng·h/mL; Cmax [7]: 2930 ± 386 ng/mL; tmax [8]: 0.33 ± 0.13 h; AUC(0-inf) [9]: 4260 ± 873 ng·h/mL; AUC0-t [10]: 4260 ± 869 ng·h/mL; Cmax [11]: 1780 ± 513 ng/mL; Cmax (male, Sprague-Dawley, rat, plasma, po, oral RB-RPA mixed extracts (45 g-herb/kg RB + 45 g-herb/kg RPA), read-out: Cmax): 2930 ± 386 ng/mL; change of AUC0-∞ after combination (rat): significantly increased
CC1C2OC3(C)CC(=O)C1CC3(O)O2 (stereo not drawn) [Paeonimetabolin I] | – | – | – | – | – | – | – | – | – | – | 4248.67 ± 1970.10 ng·h/mL | 4806.68 ± 2129.42 ng·h/mL | 575.13 ± 257.81 ng/mL | 7.11 ± 2.01 h | 0.83 ± 0.13 h | 4864.64 ± 2525.32 ng·h/mL | 5467.27 ± 2837.33 ng·h/mL | 658.61 ± 349.75 ng/mL | 7.39 ± 0.45 h | 0.75 ± 0.00 h | –
C[C@H]1O[C@@H](O[C@H]2CC[C@@]3(C)[C@@H](CC[C@]4(C)[C@@H]3C=CC3=C5CC(C)(C)CC[C@]5(CO)[C@H](O)C[C@]34C)[C@]2(C)CO)[C@H](O)[C@@H](O)[C@H]1O [Prosaikogenin D] | 27.23 ± 10.38 ng·h/mL | 31.50 ± 8.81 ng·h/mL | 7.47 ± 3.88 ng/mL | 3.38 ± 1.75 h | 0.83 ± 0.52 h | 32.79 ± 15.58 ng·h/mL | 34.59 ± 14.83 ng·h/mL | 8.53 ± 4.68 ng/mL | 2.98 ± 1.07 h | 0.71 ± 0.40 h | – | – | – | – | – | – | – | – | – | – | Cmax, second value [1]: 6.32 ± 3.38 ng/mL; tmax, second value [1]: 1.75 ± 1.02 h; Cmax, second value (oral RB-RPA mixed extracts): 8.42 ± 4.54 ng/mL; tmax, second value (oral RB-RPA mixed extracts): 1.86 ± 0.92 h
C[C@H]1O[C@@H](O[C@H]2CC[C@@]3(C)[C@@H](CC[C@]4(C)[C@@H]3C=C[C@]35OC[C@@]6(CCC(C)(C)C[C@H]63)[C@@H](O)C[C@]54C)[C@]2(C)CO)[C@H](O)[C@@H](O)[C@H]1O [Prosaikogenin F] | 54.21 ± 25.01 ng·h/mL | 57.97 ± 25.49 ng·h/mL | 14.68 ± 6.91 ng/mL | 2.91 ± 0.84 h | 1.54 ± 0.78 h | 71.62 ± 34.91 ng·h/mL | 77.58 ± 36.46 ng·h/mL | 18.36 ± 8.50 ng/mL | 3.46 ± 0.55 h | 1.62 ± 0.74 h | – | – | – | – | – | – | – | – | – | – | –
C[C@H]1O[C@@H](O[C@@H]2CC[C@@]3(C)[C@@H](CC[C@]4(C)[C@@H]3C=C[C@]35OC[C@@]6(CCC(C)(C)C[C@H]63)[C@@H](O)C[C@]54C)[C@@]2(C)CO)[C@H](O)[C@@H](O)[C@H]1O [Prosaikogenin G] | 10.10 ± 4.96 ng·h/mL | 11.33 ± 5.65 ng·h/mL | 5.81 ± 2.73 ng/mL | 1.48 ± 0.50 h | 0.79 ± 0.10 h | 11.50 ± 5.88 ng·h/mL | 12.94 ± 6.57 ng·h/mL | 6.08 ± 3.17 ng/mL | 1.48 ± 0.63 h | 0.75 ± 0.16 h | – | – | – | – | – | – | – | – | – | – | –
O=S(=O)(O)Oc1cccc(O)c1O [Pyrogallol sulfate] | – | – | – | – | – | – | – | – | – | – | 217.62 ± 126.82 ng·h/mL | 257.66 ± 175.61 ng·h/mL | 24.16 ± 13.26 ng/mL | 7.54 ± 3.63 h | 1.75 ± 0.61 h | 164.21 ± 79.60 ng·h/mL | 187.63 ± 91.25 ng·h/mL | 18.42 ± 5.81 ng/mL | 7.72 ± 3.81 h | 2.50 ± 0.78 h | –
